Laboratory results published in patent US20090215758A1, “Use of 2,5-Disubstituted Thiazol-4-One Derivatives in Drugs” (Gruenenthal GmbH, priority 2005, published 2009).

Tests used:
VR1 (human) = target: T1, VR1 (human) (Homo sapiens, UniProt Q8NER1); test: Functional study on vanilloid receptor (VR1), FLIPR Ca2+ assay in CHO K1 cells stably transfected with the VR1 gene; type: cell-based; conditions: for inhibition at 10 µM / activation at 10 µM: CHO-K1, test compound 10 μM; for activation at 10 µM: read-out: VR1 (human) (% stimulation compared to 10 μM CP)
T1 construct: expressed in transfected cells; host or cells: CHO K1 cells (ECACC), stably transfected
T1 sequence (Q8NER1 whole entry): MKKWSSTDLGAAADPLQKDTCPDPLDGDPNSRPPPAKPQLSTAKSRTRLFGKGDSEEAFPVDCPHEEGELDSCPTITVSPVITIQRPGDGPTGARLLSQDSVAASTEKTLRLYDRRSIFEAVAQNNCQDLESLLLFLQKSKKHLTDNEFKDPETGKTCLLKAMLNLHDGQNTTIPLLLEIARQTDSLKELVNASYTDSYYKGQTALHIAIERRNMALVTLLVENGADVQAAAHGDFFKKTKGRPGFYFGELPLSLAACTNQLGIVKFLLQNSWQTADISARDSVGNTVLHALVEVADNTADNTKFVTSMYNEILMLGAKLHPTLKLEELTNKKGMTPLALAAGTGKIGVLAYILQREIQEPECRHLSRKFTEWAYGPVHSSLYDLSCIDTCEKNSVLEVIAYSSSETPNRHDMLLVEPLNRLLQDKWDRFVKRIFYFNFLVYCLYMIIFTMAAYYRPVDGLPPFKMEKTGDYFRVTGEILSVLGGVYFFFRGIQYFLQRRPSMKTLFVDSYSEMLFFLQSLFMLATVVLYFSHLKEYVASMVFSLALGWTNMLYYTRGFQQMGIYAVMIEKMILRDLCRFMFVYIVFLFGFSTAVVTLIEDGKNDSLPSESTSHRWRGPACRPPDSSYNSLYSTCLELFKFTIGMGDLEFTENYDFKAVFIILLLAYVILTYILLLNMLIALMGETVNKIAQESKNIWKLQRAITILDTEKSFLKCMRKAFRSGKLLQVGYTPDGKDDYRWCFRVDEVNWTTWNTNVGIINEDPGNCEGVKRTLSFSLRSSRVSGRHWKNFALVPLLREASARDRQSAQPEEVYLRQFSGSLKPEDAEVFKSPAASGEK
Source text: The agonistic or antagonistic action of the substances to be tested on vanilloid receptor (VR1) can also be determined with the assay which follows. In this assay, the Ca^2+ current through the channel is quantified with the aid of a Ca^2+-sensitive dye (Fluo-4 type, Molecular Probes, Europe BV, Leiden, the Netherlands) in a fluorescent imaging plate reader (FLIPR, Molecular Devices, Sunnyvale, USA).
Chinese hamster ovary cells (CHO K1 cells, European Collection of Cell Cultures (ECACC) Great Britain) are transfected stably with the VR1 gene. For functional studies, these cells are plated out onto poly-D-lysine-coated black 96-well plates with a clear bottom (BD Biosciences, Heidelberg, Germany) in a density of 25 000 cells/well. The cells are incubated overnight at 37° C. and 5% CO2 in a culture medium (Ham's Nutrient Mixture F12, 10% by volume of FCS (fetal calf serum), 18 μg/ml of L-proline). The next day, the cells are incubated with Fluo-4 (Fluo-4 2 μM, Pluronic F127 0.01% by volume, Molecular Probes in HBSS (Hank's buffered saline solution), Gibco Invitrogen GmbH, Karlsruhe, Germany) at 37° C. for 30 minutes. Subsequently, the plates are washed 3 times with HBSS buffer and, after a further incubation of 15 minutes at room temperature, used for Ca^2+ measurement in FLIPR. The Ca^2+-dependent fluorescence is measured before and after addition of the substances to be studied (wavelength λex=488 nm, λem=540 nm). The quantification is effected by measuring the highest fluorescence intensity (FC, fluorescence counts) over the time.
The FLIPR protocol consists of 2 substance additions. First, the substances to be tested (10 μM) are pipetted onto the cells and the Ca current is compared with the control (capsaicin 10 μM) (% activation based on the Ca^2+ signal after addition of 10 μM capsaicin). After incubation for 5 minutes, 100 nM capsaicin is applied and the current of Ca^2+ is likewise determined.

[1] = target: T2, vanilloid receptor 1 (VR1/TRPV1) of the rat species (Rattus norvegicus, UniProt O35433); test: Functional study on vanilloid receptor 1, FLIPR Ca2+ assay in rat dorsal root ganglia cells; type: cell-based; conditions: for inhibition at 10 µM: read-out: VR1 (rat) (% inhibition compared to 10 μM CP); for activation at 10 µM: read-out: VR1 (rat) (% stimulation compared to 10 μM CP)
T2 construct: The spinal column is removed from beheaded rats; from tissue; host or cells: primary cells from rat dorsal root ganglia (DRGs)
T2 sequence (O35433 whole entry): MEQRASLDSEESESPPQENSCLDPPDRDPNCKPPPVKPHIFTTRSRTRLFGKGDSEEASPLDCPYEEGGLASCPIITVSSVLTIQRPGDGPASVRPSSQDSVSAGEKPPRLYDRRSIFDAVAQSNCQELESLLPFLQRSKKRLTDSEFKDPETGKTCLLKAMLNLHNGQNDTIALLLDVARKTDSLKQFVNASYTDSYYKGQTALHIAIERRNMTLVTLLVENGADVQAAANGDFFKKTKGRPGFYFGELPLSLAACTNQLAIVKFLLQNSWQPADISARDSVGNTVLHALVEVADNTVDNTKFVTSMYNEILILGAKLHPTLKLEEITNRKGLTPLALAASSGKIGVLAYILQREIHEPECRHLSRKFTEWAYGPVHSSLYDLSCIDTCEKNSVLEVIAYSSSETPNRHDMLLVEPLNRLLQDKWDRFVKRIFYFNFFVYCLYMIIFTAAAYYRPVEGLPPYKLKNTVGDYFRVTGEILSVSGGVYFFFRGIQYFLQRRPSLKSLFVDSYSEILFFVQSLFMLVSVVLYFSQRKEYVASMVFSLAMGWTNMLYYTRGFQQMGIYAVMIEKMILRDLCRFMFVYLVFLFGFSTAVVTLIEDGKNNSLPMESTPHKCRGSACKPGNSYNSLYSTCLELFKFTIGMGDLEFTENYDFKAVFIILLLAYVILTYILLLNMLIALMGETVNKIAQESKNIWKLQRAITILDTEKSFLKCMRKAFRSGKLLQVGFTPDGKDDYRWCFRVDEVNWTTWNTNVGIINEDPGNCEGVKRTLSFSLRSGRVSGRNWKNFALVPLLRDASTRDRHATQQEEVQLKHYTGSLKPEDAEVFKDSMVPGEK
Protocol: The agonistic or antagonistic action of the substances to be studied on the vanilloid receptor 1 (VR1/TRPV1) of the rat species can be determined with the following assay. In this assay, the Ca^2+ current through the receptor channel is quantified with the aid of a Ca^2+-sensitive dye (Fluo-4 type, Molecular Probes Europe BV, Leiden the Netherlands) in a fluorescent imaging plate reader (FLIPR, Molecular Devices, Sunnyvale, USA).
Complete medium: 50 ml HAMS F12 Nutrient Mixture (Gibco Invitrogen GmbH, Karlsruhe, Germany) with 10% by volume of FCS (fetal calf serum, Gibco Invitrogen GmbH, Karlsruhe, Germany, heat-inactivated);
2 mM L-glutamine (Sigma, Munich, Germany);
1% by weight of AA solution (antibiotic/antimycotic solution, PAA, Pasching, Austria) and 25 ng/ml of NGF medium (2.5 S, Gibco Invitrogen GmbH, Karlsruhe, Germany)
Cell culture plate: poly-D-lysine-coated, black 96-hole plates with a clear bottom (96 well black/clear plate, BD Biosciences, Heidelberg, Germany) are additionally coated with laminin (Gibco Invitrogen GmbH, Karlsruhe, Germany) by diluting laminin to a concentration of 100 μg/ml with PBS (Ca—Mg-free PBS, Gibco Invitrogen GmbH, Karlsruhe, Germany). Aliquots having a concentration of 100 μg/ml of laminin are withdrawn and stored at −20° C. The aliquots are diluted with PBS in a ratio of 1:10 to 10 μg/ml of laminin and in each case 50 μl of the solution are pipetted into a well of the cell culture plate. The cell culture plates are incubated at 37° C. for at least two hours, the supernatant solution is removed by suction and the wells are each washed twice with PBS. The coated cell culture plates are stored with supernatant PBS which is not removed until directly before the application of the cells.
The spinal column is removed from beheaded rats and placed directly into cold HBSS buffer (Hank's buffered saline solution, Gibco Invitrogen GmbH, Karlsruhe, Germany), i.e. placed in an ice bath, which has been admixed with 1% by volume of an AA solution (antibiotic/antimycotic solution, PAA, Pasching, Austria). The spinal column is severed longitudinally and removed from the spinal canal together with fasciae. Subsequently, the dorsal root ganglia (DRGs) are removed and in turn stored in cold HBSS buffer admixed with 1% by volume of an AA solution. The DRGs freed completely of blood residues and spinal nerves are in each case transferred to 500 μl of cold type 2 collagenase (PAA, Pasching, Austria) and incubated at 37° C. for 35 minutes. […] After complete incubation, the enzyme solution is cautiously pipetted off and the remaining DRGs are each suspended with 500 μl of complete medium.
The DRGs are each suspended repeatedly, drawn through cannulas No. 1, No. 12 and No. 16 by means of a syringe and transferred to 50 ml Falcon tubes which are made up to 15 ml with complete medium. The contents of each Falcon tube are in each case filtered through a 70 μm Falcon filter insert and centrifuged at 1200 revolutions and room temperature for 10 minutes. The resulting pellet is in each case taken up in 250 μl of complete medium and the cell count is determined.
The number of cells in the suspension is adjusted to 3 times 10^5 per ml and in each case 150 μl of this suspension are added to one well of the cell culture plates coated as described above.
Subsequently, the cells are laden with 2 μM Fluo-4 and 0.01% by volume of Pluronic F127 (Molecular Probes Europe BV, Leiden, the Netherlands) in HBSS buffer (Hank's buffered saline solution, Gibco Invitrogen GmbH, Karlsruhe, Germany) at 37° C. for 30 min, washed 3× with HBSS buffer and, after a further incubation of 15 minutes, used in the FLIPR assay at room temperature for Ca^2+ measurement. The Ca^2+-dependent fluorescence is measured before and after addition of substances (λex=488 nm, λem=540 nm). The quantification is effected by the measurement of the highest fluorescence intensity (FC, fluorescence counts) over the time.

[2] = 5 min incubation, then 100 nM capsaicin, compared to 10 μM CP
[3] = Ca2+ signal relative to 10 μM capsaicin (CP)
[4] = test compound 10 μM, 5 min incubation, then 100 nM capsaicin, relative to maximum inhibition with 10 μM capsaicin
[5] = test compound 10 μM, Ca2+ signal relative to 10 μM capsaicin (CP)

Row | inhibition at 10 µM (VR1 (human); [2]) [%] | activation at 10 µM (VR1 (human); [3]) [%] | inhibition at 10 µM [1, 4] [%] | activation at 10 µM [1, 5] [%] | EC50 (VR1 (human); unit inferred) [µM] | EC50 ([1]; unit inferred) [µM] | VR1 (human) (% inhibition compared to 10 μM CP) (VR1 (human); test compound 10 μM, 5 min incubation, then 100 nM capsaicin, compared to 10 μM CP) [%] | VR1 (human) (% stimulation compared to 10 μM CP) (VR1 (human); [5]) [%] | VR1 (rat) (% inhibition compared to 10 μM CP) [1, 4] [%] | VR1 (rat) (% stimulation compared to 10 μM CP) [1, 5] [%] | SMILES
1 | 34.3 | 10.9 | 64.3 | 39.6 | – | – | – | – | – | – | CC(=CC=C1SC(N2CCOCC2)=NC1=O)c1cccc(C(F)(F)F)c1 [Example 44, 2-morpholin-4-yl-5-[3-(3-trifluoromethylphenyl)but-2-enylidene]thiazol-4-one]
2 | 34.1 | 0 | 78.5 | 0.4 | – | – | – | – | – | – | O=C1N=C(N2CCN(c3ncccc3Cl)CC2)SC1=Cc1ccc2ccccc2c1 [Example 49, 2-[4-(3-chloropyridin-2-yl)piperazin-1-yl]-5-naphthalen-2-ylmethylenethiazol-4-one]
3 | 51.6 | 0 | 21.3 | 7.19 | – | – | – | – | – | – | O=C1N=C(N2CCOCC2)SC1=CC(=Cc1ccccc1)c1ccccc1 [Example 50, 5-(2,3-diphenylallylidene)-2-morpholin-4-ylthiazol-4-one]
4 | 81.7 | 79.6 | 87.9 | 96.1 | > 25 | 2.5 | – | – | – | – | O=C1N=C(N2CCSCC2)SC1=Cc1ccc2ccccc2c1 [Example 54, 5-naphthalen-2-ylmethylene-2-thiomorpholin-4-ylthiazol-4-one]
5 | 52.8 | 0 | 70.9 | 0.34 | – | – | – | – | – | – | Cc1ccc(C=C2SC(N3CCN(Cc4ccccc4)CC3)=NC2=O)cc1 [Example 63, 2-(4-benzylpiperazin-1-yl)-5-(4-methylbenzylidene)thiazol-4-one]
6 | 39.3 | 54.3 | 11.6 | 73.4 | – | – | – | – | – | – | COc1cc(C=C2SC(N3CCN(c4ccccc4)CC3)=NC2=O)ccc1O [Example 68, 5-(4-hydroxy-3-methoxybenzylidene)-2-(4-phenylpiperazin-1-yl)thiazol-4-one]
7 | 97.5 | 82.5 | 77.1 | 54.9 | – | – | – | – | – | – | O=C1N=C(N2CCSCC2)SC1=CC(Cl)=Cc1ccccc1 [Example 85, 5-(2-chloro-3-phenylallylidene)-2-thiomorpholin-4-ylthiazol-4-one]
8 | 71.1 | 61.4 | 90.1 | 72.8 | – | – | – | – | – | – | O=C1N=C(N2CCSCC2)SC1=Cc1cccc(C(=O)N2CCN(c3ncccc3Cl)CC2)c1 [Example 88, 5-{3-[4-(3-chloropyridin-2-yl)piperazine-1-carbonyl]benzylidene}-2-thiomorpholin-4-ylthiazol-4-one]
9 | 54.6 | 5.03 | 27 | 28.5 | – | – | – | – | – | – | O=C(NC1=NC(=O)C(=Cc2ccc(C(F)(F)F)cc2)S1)Nc1ccccc1C(F)(F)F [Example 96, 1-[4-oxo-5-(4-trifluoromethylbenzylidene)-4,5-dihydrothiazol-2-yl]-3-(2-trifluoromethylphenyl)urea]
10 | 28.8 | 1.02 | 50.3 | 49.3 | – | – | – | – | – | – | CC1CN(C(=O)c2cccc(C=C3SC(N4CCSCC4)=NC3=O)c2)CCN1c1ncccc1Cl (centres unmarked) [Example 110, 5-{3-[4-(3-chloropyridin-2-yl)-3-methylpiperazine-1-carbonyl]benzylidene}-2-thiomorpholin-4-ylthiazol-4-one]
11 | 97.8 | 90.3 | 97.4 | 136 | – | – | – | – | – | – | O=C1N=C(N2CCSCC2)SC1=Cc1cccc(C(=O)N2CCN(c3ncc(C(F)(F)F)cc3Cl)CC2)c1 [Example 113, 5-{3-[4-(3-chloro-5-trifluoromethylpyridin-2-yl)piperazine-1-carbonyl]-benzylidene}-2-thiomorpholin-4-ylthiazol-4-one]
12 | 66.2 | 68.2 | 95.8 | 128 | – | – | – | – | – | – | O=C1N=C(N2CCSCC2)SC1=Cc1cccc(C(=O)N2CCN(c3nsnc3Cl)CC2)c1 [Example 115, 5-{3-[4-(4-chloro-[1,2,5]thiadiazol-3-yl)piperazine-1-carbonyl]benzylidene}-2-thiomorpholin-4-ylthiazol-4-one]
13 | – | – | – | – | – | – | 84.29 | 85.02 | 87.60 | 79.68 | CC(C)c1ccc(C=C2SC(N3CCOCC3)=NC2=O)cc1 [Example 135, 5-(4-isopropylbenzylidene)-2-morpholin-4-ylthiazol-4-one]
14 | 86.7 | 114 | 96.9 | 84 | – | – | – | – | – | – | CC(C)c1ccc(C=C2SC(N3CCSCC3)=NC2=O)cc1 [Example 136, 5-(4-isopropylbenzylidene)-2-thiomorpholin-4-ylthiazol-4-one]
15 | 34.2 | 6.56 | 54.1 | 3.99 | – | – | – | – | – | – | Cc1ccc(N2CCN(C3=NC(=O)C(=Cc4ccc(C(C)(C)C)cc4)S3)CC2)nn1 [Example 154, 5-(4-tert-butylbenzylidene)-2-[4-(6-methylpyridazin-3-yl)piperazin-1-yl]thiazol-4-one]
